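Cultured in 96-well plates, cells were exposed to test compound for 48 hours across five concentrations. Here, GI50 denotes the concentration required for 50% inhibition of growth.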 Calls of active or inactive are those of the source. No stated cut-off is given here; in the data, active = GI50 up to about 1.1 µM and inactive = higher.
Columns and labels:
Assay in all cases: NCI tumour cell line growth inhibition, 48 h
[1] = system: NCI-H522
[2] = system: SF-295
[3] = system: LXFL 529
[4] = system: OVCAR-8
[5] = system: A498
[6] = system: EKVX
[7] = system: SK-MEL-28
[8] = system: RPMI-8226
[9] = system: HCT-15
[10] = system: M19-MEL
[11] = system: CCRF-CEM
[12] = system: A549
[13] = system: IGROV-1
[14] = system: HOP-92
[15] = system: M14
[16] = system: SF-539
[17] = system: TK-10
[18] = system: OVCAR-5
[19] = system: K562
[20] = system: DMS-114
[21] = system: HOP-62
[22] = system: SW-620
[23] = system: ACHN
[24] = system: Malme-3M
[25] = system: KM-20L2
[26] = system: CAKI-1
[27] = system: SK-OV-3
[28] = system: DLD-1
[29] = system: NCI-H226
[30] = system: NCI-H23
[31] = system: XF498
[32] = system: UACC-62
[33] = system: SN12C
[34] = system: RXF 393
[35] = system: HCC 2998
[36] = system: UACC-257
[37] = system: SNB-78
[38] = system: KM12
[39] = system: MOLT-4
[40] = system: OVCAR-4
[41] = system: DMS-273
[42] = system: NCI-H460
[43] = system: SNB-19
[44] = system: UO-31
[45] = system: HOP-18
[46] = system: HCT-116
[47] = system: SK-MEL-2
[48] = system: LOX IMVI
[49] = system: SNB-75
[50] = system: COLO 205
[51] = system: SF-268
[52] = system: U-251
[53] = system: 786-0
[54] = system: HT-29
[55] = system: OVCAR-3
[56] = system: SK-MEL-5
[57] = system: SR
[58] = system: HL-60

In the case of `CCCCc1c2cnccc2c(CCCC)c2c1[nH]c1ccccc12`, the GI50 [1] was 12.4 µM (inactive), the GI50 [2] was 7.19 µM (inactive) and the GI50 [3] was 11.4 µM (inactive). For the same molecule, the GI50 [4] was 12.9 µM (inactive), the GI50 [5] was 15.5 µM (inactive) and the GI50 [6] was 14.6 µM (inactive). For the same molecule, the GI50 [7] was 6.34 µM (inactive), the GI50 [8] was 2.9 µM (inactive) and the GI50 [9] was 6.84 µM. For the same molecule, the GI50 [10] was 12.4 µM (inactive), the GI50 [11] was 9.38 µM (inactive) and the GI50 [12] was 12.1 µM (inactive). For the same molecule, the GI50 [13] was 12.4 µM (inactive), the GI50 [14] was 12.8 µM (inactive) and the GI50 [15] was 15.7 µM (inactive). For the same molecule, the GI50 [16] was 3.42 µM (inactive), the GI50 [17] was 19.2 µM (inactive) and the GI50 [18] was 44.9 µM (inactive). The GI50 [19] was 3.54 µM (inactive), the GI50 [20] was 3.99 µM (inactive) and the GI50 [21] was 3.85 µM (inactive). For the same molecule, the GI50 [22] was 12.9 µM (inactive), the GI50 [23] was 10 µM (inactive) and the GI50 [24] was 11.9 µM (inactive). The GI50 [25] was 13.6 µM (inactive), the GI50 [26] was 5.9 µM (inactive) and the GI50 [27] was 27.4 µM (inactive). For the same molecule, the GI50 [28] was 9.1 µM (inactive), the GI50 [29] was 15.7 µM (inactive) and the GI50 [30] was 5.33 µM (inactive). The GI50 [31] was 5.19 µM (inactive), the GI50 [32] was 11.6 µM (inactive) and the GI50 [33] was 18 µM (inactive). For the same molecule, the GI50 [34] was 7.13 µM (inactive), the GI50 [35] was 23.9 µM (inactive) and the GI50 [36] was 15.1 µM (inactive). For the same molecule, the GI50 [37] was 25.2 µM (inactive), the GI50 [38] was 8.38 µM (inactive) and the GI50 [39] was 2.84 µM (inactive). The GI50 [40] was 8.99 µM (inactive), the GI50 [41] was 10.7 µM (inactive) and the GI50 [42] was 15.7 µM (inactive). The GI50 [43] was 7.19 µM (inactive), the GI50 [44] was 10.4 µM (inactive) and the GI50 [45] was 3.59 µM (inactive). For the same molecule, the GI50 [46] was 3.59 µM (inactive), the GI50 [47] was 12.6 µM (inactive) and the GI50 [48] was 13.7 µM (inactive). For the same molecule, the GI50 [49] was 5.87 µM (inactive), the GI50 [50] was 10.3 µM (inactive) and the GI50 [51] was 14.9 µM (inactive). For the same molecule, the GI50 [52] was 12.8 µM (inactive), the GI50 [53] was 10 µM (inactive) and the GI50 [54] was 9.91 µM (inactive). The GI50 [55] was 5.26 µM (inactive).
With `COc1ccc2c(OC)c3ccoc3nc2c1O` the GI50 [1] was > 100 µM (inactive), the GI50 [2] was > 100 µM (inactive) and the GI50 [3] was > 100 µM (inactive). The GI50 [4] was > 100 µM (inactive), the GI50 [56] was > 100 µM (inactive) and the GI50 [5] was > 100 µM (inactive). The GI50 [6] was 53.8 µM (inactive), the GI50 [7] was > 100 µM (inactive) and the GI50 [8] was 33.7 µM (inactive). For the same molecule, the GI50 [9] was 37 µM, the GI50 [10] was 54.8 µM (inactive) and the GI50 [11] was 43.3 µM (inactive). For the same molecule, the GI50 [12] was > 100 µM (inactive), the GI50 [13] was > 100 µM (inactive) and the GI50 [15] was > 100 µM (inactive). The GI50 [16] was > 100 µM (inactive), the GI50 [17] was > 100 µM (inactive) and the GI50 [18] was > 100 µM (inactive). The GI50 [19] was > 100 µM (inactive), the GI50 [20] was > 100 µM (inactive) and the GI50 [21] was 49.2 µM (inactive). The GI50 [22] was > 100 µM (inactive), the GI50 [23] was > 100 µM (inactive) and the GI50 [24] was > 100 µM (inactive). The GI50 [25] was > 100 µM (inactive), the GI50 [26] was 93.3 µM (inactive) and the GI50 [27] was > 100 µM (inactive). For the same molecule, the GI50 [28] was 78.3 µM (inactive), the GI50 [30] was > 100 µM (inactive) and the GI50 [31] was > 100 µM (inactive). The GI50 [32] was 77.8 µM (inactive), the GI50 [33] was > 100 µM (inactive) and the GI50 [35] was > 100 µM (inactive). For the same molecule, the GI50 [36] was 39.5 µM (inactive), the GI50 [37] was > 100 µM (inactive) and the GI50 [38] was > 100 µM (inactive). The GI50 [39] was 42.2 µM (inactive), the GI50 [40] was > 100 µM (inactive) and the GI50 [42] was 85.9 µM (inactive). For the same molecule, the GI50 [43] was > 100 µM (inactive), the GI50 [44] was 63.1 µM (inactive) and the GI50 [45] was 0.114 µM (active). The GI50 [46] was > 100 µM (inactive), the GI50 [47] was > 100 µM (inactive) and the GI50 [49] was 86.9 µM (inactive). The GI50 [50] was > 100 µM (inactive), the GI50 [51] was > 100 µM (inactive) and the GI50 [52] was > 100 µM (inactive). The GI50 [53] was > 100 µM (inactive), the GI50 [54] was > 100 µM (inactive) and the GI50 [55] was > 100 µM (inactive).
In the case of `COC(=O)CSc1nnc(-c2ccccc2)[nH]1`, the GI50 [1] was > 100 µM (inactive), the GI50 [2] was > 100 µM (inactive) and the GI50 [3] was > 100 µM (inactive). The GI50 [4] was > 100 µM (inactive), the GI50 [56] was > 100 µM (inactive) and the GI50 [5] was > 100 µM (inactive). The GI50 [6] was > 100 µM (inactive), the GI50 [7] was > 100 µM (inactive) and the GI50 [8] was > 100 µM (inactive). For the same molecule, the GI50 [9] was over 100 µM, the GI50 [10] was > 100 µM (inactive) and the GI50 [11] was > 100 µM (inactive). For the same molecule, the GI50 [12] was > 100 µM (inactive), the GI50 [13] was > 100 µM (inactive) and the GI50 [14] was > 100 µM (inactive). For the same molecule, the GI50 [15] was > 100 µM (inactive), the GI50 [16] was > 100 µM (inactive) and the GI50 [17] was > 100 µM (inactive). For the same molecule, the GI50 [18] was > 100 µM (inactive), the GI50 [19] was > 100 µM (inactive) and the GI50 [20] was > 100 µM (inactive). The GI50 [21] was > 100 µM (inactive), the GI50 [22] was > 100 µM (inactive) and the GI50 [23] was > 100 µM (inactive). For the same molecule, the GI50 [57] was 3.7 µM (inactive), the GI50 [24] was > 100 µM (inactive) and the GI50 [25] was > 100 µM (inactive). For the same molecule, the GI50 [26] was > 100 µM (inactive), the GI50 [27] was > 100 µM (inactive) and the GI50 [28] was > 100 µM (inactive). For the same molecule, the GI50 [29] was > 100 µM (inactive), the GI50 [30] was > 100 µM (inactive) and the GI50 [58] was > 100 µM (inactive). The GI50 [32] was > 100 µM (inactive), the GI50 [33] was > 100 µM (inactive) and the GI50 [36] was > 100 µM (inactive). The GI50 [37] was > 100 µM (inactive), the GI50 [38] was > 100 µM (inactive) and the GI50 [39] was 16.4 µM (inactive). For the same molecule, the GI50 [40] was > 100 µM (inactive), the GI50 [41] was > 100 µM (inactive) and the GI50 [42] was > 100 µM (inactive). The GI50 [43] was > 100 µM (inactive), the GI50 [44] was > 100 µM (inactive) and the GI50 [45] was > 100 µM (inactive). The GI50 [46] was > 100 µM (inactive), the GI50 [47] was > 100 µM (inactive) and the GI50 [49] was 40.5 µM (inactive). For the same molecule, the GI50 [50] was > 100 µM (inactive), the GI50 [51] was > 100 µM (inactive) and the GI50 [52] was > 100 µM (inactive). The GI50 [53] was > 100 µM (inactive), the GI50 [54] was > 100 µM (inactive) and the GI50 [55] was > 100 µM (inactive).
In the case of `COc1ccc(CSc2nc3ccccc3nc2-c2cccs2)cc1`, the GI50 [2] was > 100 µM (inactive), the GI50 [4] was > 100 µM (inactive) and the GI50 [6] was > 100 µM (inactive). For the same molecule, the GI50 [7] was > 100 µM (inactive), the GI50 [8] was > 100 µM (inactive) and the GI50 [11] was 15.2 µM (inactive). For the same molecule, the GI50 [12] was > 100 µM (inactive), the GI50 [14] was > 100 µM (inactive) and the GI50 [15] was > 100 µM (inactive). For the same molecule, the GI50 [16] was > 100 µM (inactive), the GI50 [19] was 30.7 µM (inactive) and the GI50 [20] was 76 µM (inactive). The GI50 [23] was > 100 µM (inactive), the GI50 [24] was > 100 µM (inactive) and the GI50 [27] was > 100 µM (inactive). The GI50 [30] was > 100 µM (inactive), the GI50 [31] was > 100 µM (inactive) and the GI50 [58] was 26.4 µM (inactive). The GI50 [33] was > 100 µM (inactive), the GI50 [36] was 98.4 µM (inactive) and the GI50 [37] was > 100 µM (inactive). For the same molecule, the GI50 [39] was 56.2 µM (inactive), the GI50 [40] was > 100 µM (inactive) and the GI50 [41] was > 100 µM (inactive). The GI50 [43] was > 100 µM (inactive), the GI50 [44] was > 100 µM (inactive) and the GI50 [45] was > 100 µM (inactive). For the same molecule, the GI50 [46] was > 100 µM (inactive), the GI50 [49] was > 100 µM (inactive) and the GI50 [50] was > 100 µM (inactive). For the same molecule, the GI50 [51] was > 100 µM (inactive), the GI50 [52] was > 100 µM (inactive) and the GI50 [53] was > 100 µM (inactive). For the same molecule, the GI50 [54] was > 100 µM (inactive) and the GI50 [55] was > 100 µM (inactive).
